# Values of other authors, collected in patent US20260356885A1, “PROCESS FOR MANUFACTURING AN ANTIBIOTIC MACROCYCLIC PEPTIDE” (Hoffmann-La Roche Inc., priority 2022, published 2026).
# Tested on: Acinetobacter baumannii
# Details: statement in words, as discussed in WO2019206853; no test or value given
smiles,measurement,value
"CN1C(=O)[C@H](CCCCN)NC(=O)[C@H](CCCN)NCc2cccnc2Sc2cccc(-c3ccc(C(=O)O)cc3)c2CNC(=O)[C@@H]1Cc1c[nH]c2ccccc12 [compound of formula (I), 4-[(11S,14S,17S)-14-(4-Aminobutyl)-11-(3-aminopropyl)-17-(1H-indol-3-ylmethyl)-16-methyl-12,15,18-trioxo-2-thia-4, 10, 13, 16, 19-pentazatricyclo[19.4.0.03,8]pentacosa-1 (25),3 (8), 4,6,21,23-hexaen-22-yl]benzoic acid]","antibiotic action, selective against Acinetobacter baumannii",potent antibiotic with selective action against Acinetobacter baumannii
